# Measurements: article PMC10042540, “Targeting oncogenic KRasG13C with nucleotide-based covalent inhibitors” (eLife, 2023)
# Key:
# tErk = experiment: Electroporation into HeLa cells, western blot quantification; format: cell-based, human; conditions: for tErk mean fold change: mean of cell lysates
# Protocol: (§1) HeLa cells were obtained from the American Type Culture Collection (ATCC) and were cultured in DMEM medium (Gibco) supplemented with 10% fetal bovine serum (FBS) (PAN-Biotech) and 1% penicillin/streptomycin (Gibco). Cells were cultured in a humidified incubator at 37 °C in the presence of 5% CO2. The identity of the cells was validated by STR profiling and the cells were tested negative for mycoplasma contamination.
# (§2) Electroporation of full-length KRas constructs (KRasWT, KRasG13C, KRasG13C-edaGDP, KRasG13C:acetyledaGDP and KRasG13C-edaGppCp) was performed based on the protocol described by [Alex et al., 2019] using the Neon Transfection System Kit (Thermo Fisher). For electroporation, 3 million cells per experiment were harvested by trypsinization, washed with PBS, and resuspended in 85 µL of the electroporation buffer R (Thermo Fisher). Increasing amounts of recombinant protein samples for each construct (0, 50, 100, 200 and 300 µg) were diluted 1:1 in buffer R followed by the addition of 30 µL of this protein master mix to the cell suspension. This cellular slurry was loaded into a […] Neon Pipette Tip (Thermo Fisher) and electroporated with 2x35 ms pulses at 1000 V. After electroporation, the cells were washed twice with PBS (15 mL) to remove non-internalized extracellular protein and the cell pellet was resuspended in 2 mL complete growth media. Cells were transferred into six-well tissue culture plates (Sarstedt) and incubated for 24 hr at 37 °C and 5% CO2 in a humidified incubator for recovery before being processed for western blotting analysis.
# (§3) After recovery of the electroporation, cells were washed twice with ice-cold PBS and lysed in 100 µL of phosphatase and protease inhibitor containing RIPA buffer (Cell Signaling Technology). Cells were incubated on ice for 30 min and then harvested by scraping followed by centrifugation at 14,000 rpm for 10 min at 4 °C. Protein concentrations were determined using the Pierce BCA protein assay (Thermo) following the manufacturer’s recommended procedure. Equal amounts of protein (10 µg) were analyzed by SDS-PAGE and transferred to Immobilon-FL PVDF membranes (Merck Millipore) using Pierce 1-step transfer buffer (Thermo) and the Pierce Power Blotter (Thermo). Membranes were washed with ddH2O for 5 min, blocked with OdysseyBlocking Buffer TBS (Li-Cor) for 1 hr at room temperature and then incubated with primary antibodies diluted in OdysseyBlocking Buffer TBS overnight at 4 °C with gentle agitation. KRas (Sigma Aldrich, SAB1404011-100UG), pcRafS338 (CST, 9427), tAkt1 (CST, 2938), pAktS473 (CST, 4060), tErk (CST, 4696), pErkT202/Y204 (CST, 4370), pS6S235/236 (CST, 4858), and β-actin (CST, 4970/Sigma-Aldrich, A5441) antibodies were used to detect the individual proteins. After primary antibody incubation, membranes were washed three times with TBS-T (50 mM Tris, 150 mM NaCl, 0.05% Tween 20, pH 7.4) for 5 min before being incubated with secondary antibodies (anti-mouse IgG (H+L) (DyLight 680 Conjugate) (CST, 5470) / anti-rabbit IgG (H+L) (DyLight 800 4 X PEG Conjugate) (CST, 5151)) diluted in OdysseyBlocking Buffer TBS for 1 hr at room temperature with gentle agitation. After secondary antibody incubation, the membranes were washed three times for 5 min with TBS-T and then scanned using an OdysseyCLx imaging system (Li-Cor). Quantification of protein levels from western blots was performed using Empiria Studio (Li-Cor) (Figure 3B, C, Figure 3—figure supplements 6–9).
# tAkt1 = experiment: as above; format: cell-based, human; conditions: for tAkt mean fold change: mean of cell lysates
# Protocol: as §1, §2, §3
# pErkT202/Y204 = experiment: as above; format: cell-based, human; conditions: for pErk mean fold change: mean of cell lysates
# Protocol: as §1, §2, §3
# pS6S235/236 = experiment: as above; format: cell-based, human; conditions: for pS6 mean fold change: mean of cell lysates
# Protocol: as §1, §2, §3
# pAktS473 = experiment: as above; format: cell-based, human; conditions: for pAkt mean fold change: mean of cell lysates
# Protocol: as §1, §2, §3
# pcRafS338 = experiment: as above; format: cell-based, human; conditions: for pcRaf mean fold change: mean of cell lysates
# Protocol: as §1, §2, §3
# SOS = experiment: Guanine nucleotide-exchange factor assay (mantdGDP fluorescence); format: biochemical
# Protocol: SOS-catalysed nucleotide exchange was monitored at 25 °C in a FluoroMax-3 spectrofluorometer (excitation at 360 nm, emission at 440 nm) in 20 mM HEPES (pH 7.5), 100 mM NaCl, 2 mM MgCl2, and 1 mM TCEP. 5 µM KRas1-169 was mixed with 10 µM mantdGDP and subsequently with different concentrations of SOS (0.25 µM and 0.5 µM) (Figure 3A; Figure 3—figure supplement 1).
# [1] = tested on: Ras pathway (pcRaf, pAkt, pErk, pS6); experiment: Electroporation into HeLa cells, western blot of downstream signalling; format: cell-based, human; conditions: electroporation of 50-300 µg protein
# Protocol: as §1, §2
# After recovery of the electroporation, cells were washed twice with ice-cold PBS and lysed in 100 µL of phosphatase and protease inhibitor containing RIPA buffer (Cell Signaling Technology). Cells were incubated on ice for 30 min and then harvested by scraping followed by centrifugation at 14,000 rpm for 10 min at 4 °C. Protein concentrations were determined using the Pierce BCA protein assay (Thermo) following the manufacturer’s recommended procedure. Equal amounts of protein (10 µg) were analyzed by SDS-PAGE and transferred to Immobilon-FL PVDF membranes (Merck Millipore) using Pierce 1-step transfer buffer (Thermo) and the Pierce Power Blotter (Thermo). Membranes were washed with ddH2O for 5 min, blocked with OdysseyBlocking Buffer TBS (Li-Cor) for 1 hr at room temperature and then incubated with primary antibodies diluted in OdysseyBlocking Buffer TBS overnight at 4 °C with gentle agitation. […] Quantification of protein levels from western blots was performed using Empiria Studio (Li-Cor) (Figure 3B, C, Figure 3—figure supplements 6–9).
substance,measurement,setting,value
"KRasG13C: recombinant oncogenic KRasG13C mutant protein, GDP-bound",tErk fold change,"tErk; 50 µg, Cell lysate 1",0.88
same,tErk fold change,"tErk; 50 µg, Cell lysate 2",1.05
same,tErk fold change,"tErk; 50 µg, Cell lysate 3",0.99
same,tErk mean fold change,tErk; 50 µg,0.97
same,tErk fold change,"tErk; 100 µg, Cell lysate 1",0.44
same,tErk fold change,"tErk; 100 µg, Cell lysate 2",1.04
same,tErk fold change,"tErk; 100 µg, Cell lysate 3",1.00
same,tErk mean fold change,tErk; 100 µg,0.83
same,tErk fold change,"tErk; 200 µg, Cell lysate 1",0.50
same,tErk fold change,"tErk; 200 µg, Cell lysate 2",1.05
same,tErk fold change,"tErk; 200 µg, Cell lysate 3",0.89
same,tErk mean fold change,tErk; 200 µg,0.81
same,tErk fold change,"tErk; 300 µg, Cell lysate 1",0.97
same,tErk fold change,"tErk; 300 µg, Cell lysate 2",1.08
same,tErk fold change,"tErk; 300 µg, Cell lysate 3",0.89
same,tErk mean fold change,tErk; 300 µg,0.98
same,tAkt fold change,"tAkt1; 50 µg, Cell lysate 1",1.94
same,tAkt fold change,"tAkt1; 50 µg, Cell lysate 2",0.93
same,tAkt fold change,"tAkt1; 50 µg, Cell lysate 3",1.69
same,tAkt mean fold change,tAkt1; 50 µg,1.52
same,tAkt fold change,"tAkt1; 100 µg, Cell lysate 1",2.66
same,tAkt fold change,"tAkt1; 100 µg, Cell lysate 2",0.74
same,tAkt fold change,"tAkt1; 100 µg, Cell lysate 3",1.08
same,tAkt mean fold change,tAkt1; 100 µg,1.49
same,tAkt fold change,"tAkt1; 200 µg, Cell lysate 1",2.05
same,tAkt fold change,"tAkt1; 200 µg, Cell lysate 2",1.29
same,tAkt fold change,"tAkt1; 200 µg, Cell lysate 3",1.44
same,tAkt mean fold change,tAkt1; 200 µg,1.59
same,tAkt fold change,"tAkt1; 300 µg, Cell lysate 1",1.78
same,tAkt fold change,"tAkt1; 300 µg, Cell lysate 2",1.44
same,tAkt fold change,"tAkt1; 300 µg, Cell lysate 3",1.65
same,tAkt mean fold change,tAkt1; 300 µg,1.62
same,pErk fold change,"pErkT202/Y204; 50 µg, Cell lysate 1",5.54
same,pErk fold change,"pErkT202/Y204; 50 µg, Cell lysate 2",1.80
same,pErk fold change,"pErkT202/Y204; 50 µg, Cell lysate 3",3.53
same,pErk mean fold change,pErkT202/Y204; 50 µg,3.62
same,pErk fold change,"pErkT202/Y204; 100 µg, Cell lysate 1",6.18
same,pErk fold change,"pErkT202/Y204; 100 µg, Cell lysate 2",2.89
same,pErk fold change,"pErkT202/Y204; 100 µg, Cell lysate 3",3.58
same,pErk mean fold change,pErkT202/Y204; 100 µg,4.22
same,pErk fold change,"pErkT202/Y204; 200 µg, Cell lysate 1",6.87
same,pErk fold change,"pErkT202/Y204; 200 µg, Cell lysate 2",3.48
same,pErk fold change,"pErkT202/Y204; 200 µg, Cell lysate 3",4.30
same,pErk mean fold change,pErkT202/Y204; 200 µg,4.88
same,pErk fold change,"pErkT202/Y204; 300 µg, Cell lysate 1",9.07
same,pErk fold change,"pErkT202/Y204; 300 µg, Cell lysate 2",4.08
same,pErk fold change,"pErkT202/Y204; 300 µg, Cell lysate 3",5.76
same,pErk mean fold change,pErkT202/Y204; 300 µg,6.30
same,pS6 fold change,"pS6S235/236; 50 µg, Cell lysate 1",1.14
same,pS6 fold change,"pS6S235/236; 50 µg, Cell lysate 2",1.57
same,pS6 fold change,"pS6S235/236; 50 µg, Cell lysate 3",1.40
same,pS6 mean fold change,pS6S235/236; 50 µg,1.37
same,pS6 fold change,"pS6S235/236; 100 µg, Cell lysate 1",0.95
same,pS6 fold change,"pS6S235/236; 100 µg, Cell lysate 2",1.80
same,pS6 fold change,"pS6S235/236; 100 µg, Cell lysate 3",1.21
same,pS6 mean fold change,pS6S235/236; 100 µg,1.32
same,pS6 fold change,"pS6S235/236; 200 µg, Cell lysate 1",1.17
same,pS6 fold change,"pS6S235/236; 200 µg, Cell lysate 2",2.22
same,pS6 fold change,"pS6S235/236; 200 µg, Cell lysate 3",1.06
same,pS6 mean fold change,pS6S235/236; 200 µg,1.48
same,pS6 fold change,"pS6S235/236; 300 µg, Cell lysate 1",1.44
same,pS6 fold change,"pS6S235/236; 300 µg, Cell lysate 2",2.42
same,pS6 fold change,"pS6S235/236; 300 µg, Cell lysate 3",1.24
same,pS6 mean fold change,pS6S235/236; 300 µg,1.70
same,pAkt fold change,"pAktS473; 50 µg, Cell lysate 1",1.68
same,pAkt fold change,"pAktS473; 50 µg, Cell lysate 2",1.22
same,pAkt fold change,"pAktS473; 50 µg, Cell lysate 3",2.21
same,pAkt mean fold change,pAktS473; 50 µg,1.70
same,pAkt fold change,"pAktS473; 100 µg, Cell lysate 1",3.58
same,pAkt fold change,"pAktS473; 100 µg, Cell lysate 2",2.56
same,pAkt fold change,"pAktS473; 100 µg, Cell lysate 3",1.82
same,pAkt mean fold change,pAktS473; 100 µg,2.65
same,pAkt fold change,"pAktS473; 200 µg, Cell lysate 1",4.98
same,pAkt fold change,"pAktS473; 200 µg, Cell lysate 2",2.01
same,pAkt fold change,"pAktS473; 200 µg, Cell lysate 3",1.89
same,pAkt mean fold change,pAktS473; 200 µg,2.96
same,pAkt fold change,"pAktS473; 300 µg, Cell lysate 1",4.64
same,pAkt fold change,"pAktS473; 300 µg, Cell lysate 2",3.64
same,pAkt fold change,"pAktS473; 300 µg, Cell lysate 3",1.72
same,pAkt mean fold change,pAktS473; 300 µg,3.33
same,pcRaf fold change,"pcRafS338; 50 µg, Cell lysate 1",1.43
same,pcRaf fold change,"pcRafS338; 50 µg, Cell lysate 2",2.59
same,pcRaf fold change,"pcRafS338; 50 µg, Cell lysate 3",1.91
same,pcRaf mean fold change,pcRafS338; 50 µg,1.98
same,pcRaf fold change,"pcRafS338; 100 µg, Cell lysate 1",1.55
same,pcRaf fold change,"pcRafS338; 100 µg, Cell lysate 2",4.23
same,pcRaf fold change,"pcRafS338; 100 µg, Cell lysate 3",1.55
same,pcRaf mean fold change,pcRafS338; 100 µg,2.44
same,pcRaf fold change,"pcRafS338; 200 µg, Cell lysate 1",1.46
same,pcRaf fold change,"pcRafS338; 200 µg, Cell lysate 2",6.14
same,pcRaf fold change,"pcRafS338; 200 µg, Cell lysate 3",1.74
same,pcRaf mean fold change,pcRafS338; 200 µg,3.11
same,pcRaf fold change,"pcRafS338; 300 µg, Cell lysate 1",1.29
same,pcRaf fold change,"pcRafS338; 300 µg, Cell lysate 2",6.29
same,pcRaf fold change,"pcRafS338; 300 µg, Cell lysate 3",1.50
same,pcRaf mean fold change,pcRafS338; 300 µg,3.03
same,SOS-catalysed nucleotide exchange,"SOS; 5 µM KRas1-169, 10 µM mantdGDP, 0.25 or 0.5 µM SOS",efficiently catalysed nucleotide exchange
same,intrinsic nucleotide exchange rate,SOS; absence of SOS,drastically increased
same,"downstream signalling (pcRaf, pAkt, pErk, pS6)",[1],concentration-dependent activation of the downstream signalling
